# Tested on: 188146-221-R-J1-PDC complex spheroid viability
# Assay: Anticancer human tumor 188146-221-R-J1-PDC patient-derived colon adenocarcinoma cell line growth inhibition [POLQ]
# Settings: for IC50: curve of first compound; for viability, T/C: stronger effect = lower value
# Method in brief: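 Growth inhibition in 3D: complex spheroids (tumor PDC, HUVEC, MSC) treated with POLQ inhibitor combinations; where Cmax unknown, highest tested concentration 10 microM, except SN-38 at 1 microM.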
# [1] = second compound 0.0316 µM, first compound 0.0316 µM
# [2] = second compound 0.0316 µM, first compound 0.1 µM
# [3] = second compound 0.0316 µM, first compound 0.316 µM
# [4] = second compound 0.0316 µM, first compound 1 µM
# [5] = second compound 0.0316 µM, first compound 3.16 µM
# [6] = second compound 0.0316 µM, first compound 10 µM
# [7] = second compound 0.1 µM, first compound 0.0316 µM
# [8] = second compound 0.1 µM, first compound 0.1 µM
# [9] = second compound 0.1 µM, first compound 0.316 µM
# [10] = second compound 0.1 µM, first compound 1 µM
# [11] = second compound 0.1 µM, first compound 3.16 µM
# [12] = second compound 0.1 µM, first compound 10 µM
# [13] = second compound 0.316 µM, first compound 0.0316 µM
# [14] = second compound 0.316 µM, first compound 0.1 µM
# [15] = second compound 0.316 µM, first compound 0.316 µM
# [16] = second compound 0.316 µM, first compound 1 µM
# [17] = second compound 0.316 µM, first compound 3.16 µM
# [18] = second compound 0.316 µM, first compound 10 µM
# [19] = second compound 1 µM, first compound 0.0316 µM
# [20] = second compound 1 µM, first compound 0.1 µM
# [21] = second compound 1 µM, first compound 0.316 µM
# [22] = second compound 1 µM, first compound 1 µM
# [23] = second compound 1 µM, first compound 3.16 µM
# [24] = second compound 1 µM, first compound 10 µM
# [25] = second compound 3.16 µM, first compound 0.0316 µM
# [26] = second compound 3.16 µM, first compound 0.1 µM
# [27] = second compound 3.16 µM, first compound 0.316 µM
# [28] = second compound 3.16 µM, first compound 1 µM
# [29] = second compound 3.16 µM, first compound 3.16 µM
# [30] = second compound 3.16 µM, first compound 10 µM
# [31] = second compound 10 µM, first compound 0.0316 µM
# [32] = second compound 10 µM, first compound 0.1 µM
# [33] = second compound 10 µM, first compound 0.316 µM
# [34] = second compound 10 µM, first compound 1 µM
# [35] = second compound 10 µM, first compound 3.16 µM
# [36] = second compound 10 µM, first compound 10 µM
# 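Further: spheroids exposed to compounds for seven days.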
# 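Wherever viability, T/C is given: 100% = DMSO vehicle control viability.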
smiles,measurement,setting,value
CC1COCCN1c1cc(-c2ccnn2C)c2ccnc(-c3ccn[nH]3)c2n1 (stereo not drawn) + Nc1ccc(C#CCN(C(=O)Cc2ncc(C(F)(F)F)cc2C(F)(F)F)c2ccc(F)cc2)nn1,IC50,second compound 0.0316 µM,177 nM
same,IC50,second compound 0.1 µM,228 nM
same,IC50,second compound 0.316 µM,173 nM
same,IC50,second compound 1 µM,142 nM
same,IC50,second compound 3.16 µM,162 nM
same,IC50,second compound 10 µM,176 nM
same,"viability, T/C",[1],84.9%
same,"viability, T/C",[2],63.2%
same,"viability, T/C",[3],36.3%
same,"viability, T/C",[4],22.6%
same,"viability, T/C",[5],16.3%
same,"viability, T/C",[6],14.5%
same,"viability, T/C",[7],86.4%
same,"viability, T/C",[8],72.8%
same,"viability, T/C",[9],40.3%
same,"viability, T/C",[10],22.3%
same,"viability, T/C",[11],17.2%
same,"viability, T/C",[12],12.9%
same,"viability, T/C",[13],80%
same,"viability, T/C",[14],61.1%
same,"viability, T/C",[15],38.3%
same,"viability, T/C",[16],20%
same,"viability, T/C",[17],14.1%
same,"viability, T/C",[18],15.8%
same,"viability, T/C",[19],96.3%
same,"viability, T/C",[20],54%
same,"viability, T/C",[21],40.2%
same,"viability, T/C",[22],19.2%
same,"viability, T/C",[23],16.2%
same,"viability, T/C",[24],15%
same,"viability, T/C",[25],89.7%
same,"viability, T/C",[26],56.7%
same,"viability, T/C",[27],42.6%
same,"viability, T/C",[28],19.6%
same,"viability, T/C",[29],17.4%
same,"viability, T/C",[30],14.2%
same,"viability, T/C",[31],77.3%
same,"viability, T/C",[32],66.1%
same,"viability, T/C",[33],33.2%
same,"viability, T/C",[34],19.8%
same,"viability, T/C",[35],18.6%
same,"viability, T/C",[36],14.7%
CCc1c2c(nc3ccc(O)cc13)-c1cc3c(c(=O)n1C2)COC(=O)[C@]3(O)CC + COC1C(OC(N)=O)C(O)C(Oc2ccc3c(O)c(NC(=O)c4ccc(O)c(CC=C(C)C)c4)c(=O)oc3c2C)OC1(C)C,IC50,second compound 0.0316 µM,25.9 nM
same,IC50,second compound 0.1 µM,26.8 nM
same,IC50,second compound 0.316 µM,24 nM
same,IC50,second compound 1 µM,27 nM
same,IC50,second compound 3.16 µM,21.1 nM
same,IC50,second compound 10 µM,13.2 nM
same,"viability, T/C","second compound 0.0316 µM, first compound 0.00316 µM",96.6%
same,"viability, T/C","second compound 0.0316 µM, first compound 0.01 µM",83.1%
same,"viability, T/C",[1],41%
same,"viability, T/C",[2],20.6%
same,"viability, T/C",[3],10.8%
same,"viability, T/C",[4],7.12%
same,"viability, T/C","second compound 0.1 µM, first compound 0.00316 µM",95.7%
same,"viability, T/C","second compound 0.1 µM, first compound 0.01 µM",88%
same,"viability, T/C",[7],42.5%
same,"viability, T/C",[8],16.8%
same,"viability, T/C",[9],8.86%
same,"viability, T/C",[10],6.83%
same,"viability, T/C","second compound 0.316 µM, first compound 0.00316 µM",87.1%
same,"viability, T/C","second compound 0.316 µM, first compound 0.01 µM",88.6%
same,"viability, T/C",[13],38%
same,"viability, T/C",[14],14.2%
same,"viability, T/C",[15],9.57%
same,"viability, T/C",[16],7.85%
same,"viability, T/C","second compound 1 µM, first compound 0.00316 µM",93.5%
same,"viability, T/C","second compound 1 µM, first compound 0.01 µM",91.2%
same,"viability, T/C",[19],42.9%
same,"viability, T/C",[20],16.6%
same,"viability, T/C",[21],11%
same,"viability, T/C",[22],7.07%
same,"viability, T/C","second compound 3.16 µM, first compound 0.00316 µM",94.3%
same,"viability, T/C","second compound 3.16 µM, first compound 0.01 µM",79%
same,"viability, T/C",[25],34%
same,"viability, T/C",[26],13.3%
same,"viability, T/C",[27],10.9%
same,"viability, T/C",[28],6.97%
same,"viability, T/C","second compound 10 µM, first compound 0.00316 µM",95.5%
same,"viability, T/C","second compound 10 µM, first compound 0.01 µM",56.7%
same,"viability, T/C",[31],28.6%
same,"viability, T/C",[32],14.9%
same,"viability, T/C",[33],9.1%
same,"viability, T/C",[34],9.35%
O=C(Nc1ccc(O)c(NS(=O)(=O)c2ccc(F)cc2)c1)c1ccc(-c2ccccc2)cc1 + Nc1ccc(C#CCN(C(=O)Cc2ncc(C(F)(F)F)cc2C(F)(F)F)c2ccc(F)cc2)nn1,IC50,second compound 0.0316 µM,> 10000 nM
same,IC50,second compound 0.1 µM,> 10000 nM
same,IC50,second compound 0.316 µM,> 10000 nM
same,IC50,second compound 1 µM,> 10000 nM
same,IC50,second compound 3.16 µM,> 10000 nM
same,IC50,second compound 10 µM,> 10000 nM
same,"viability, T/C",[1],104%
same,"viability, T/C",[2],100%
same,"viability, T/C",[3],88%
same,"viability, T/C",[4],109%
same,"viability, T/C",[5],92.7%
same,"viability, T/C",[6],72%
same,"viability, T/C",[7],105%
same,"viability, T/C",[8],119%
same,"viability, T/C",[9],109%
same,"viability, T/C",[10],104%
same,"viability, T/C",[11],88.9%
same,"viability, T/C",[12],63.6%
same,"viability, T/C",[13],119%
same,"viability, T/C",[14],100%
same,"viability, T/C",[15],93.5%
same,"viability, T/C",[16],92%
same,"viability, T/C",[17],93.6%
same,"viability, T/C",[18],60.1%
same,"viability, T/C",[19],124%
same,"viability, T/C",[20],112%
same,"viability, T/C",[21],108%
same,"viability, T/C",[22],79.7%
same,"viability, T/C",[23],97.8%
same,"viability, T/C",[24],73.2%
same,"viability, T/C",[25],111%
same,"viability, T/C",[26],110%
same,"viability, T/C",[27],118%
same,"viability, T/C",[28],99.9%
same,"viability, T/C",[29],107%
same,"viability, T/C",[30],60.1%
same,"viability, T/C",[31],111%
same,"viability, T/C",[32],118%
same,"viability, T/C",[33],110%
same,"viability, T/C",[34],99.1%
same,"viability, T/C",[35],110%
same,"viability, T/C",[36],68.6%
CCc1cc2c(N3CCc4c(cc(Cn5ccnc5)cc4-c4cn(C)nc4C(F)(F)F)C3=O)ccnc2c(OC)n1 + COC1C(OC(N)=O)C(O)C(Oc2ccc3c(O)c(NC(=O)c4ccc(O)c(CC=C(C)C)c4)c(=O)oc3c2C)OC1(C)C,IC50,second compound 0.0316 µM,8380 nM
same,IC50,second compound 0.1 µM,> 10000 nM
same,IC50,second compound 0.316 µM,9830 nM
same,IC50,second compound 1 µM,6450 nM
same,IC50,second compound 3.16 µM,> 10000 nM
same,IC50,second compound 10 µM,> 10000 nM
same,"viability, T/C",[1],107%
same,"viability, T/C",[2],93.5%
same,"viability, T/C",[3],99.2%
same,"viability, T/C",[4],96.2%
same,"viability, T/C",[5],67.6%
same,"viability, T/C",[6],46.8%
same,"viability, T/C",[7],117%
same,"viability, T/C",[8],108%
same,"viability, T/C",[9],107%
same,"viability, T/C",[10],99.7%
same,"viability, T/C",[11],66.3%
same,"viability, T/C",[12],62.6%
same,"viability, T/C",[13],103%
same,"viability, T/C",[14],108%
same,"viability, T/C",[15],98.1%
same,"viability, T/C",[16],93.7%
same,"viability, T/C",[17],68.7%
same,"viability, T/C",[18],49.9%
same,"viability, T/C",[19],103%
same,"viability, T/C",[20],97.2%
same,"viability, T/C",[21],104%
same,"viability, T/C",[22],104%
same,"viability, T/C",[23],58.5%
same,"viability, T/C",[24],44.7%
same,"viability, T/C",[25],105%
same,"viability, T/C",[26],111%
same,"viability, T/C",[27],102%
same,"viability, T/C",[28],83%
same,"viability, T/C",[29],82.8%
same,"viability, T/C",[30],55.3%
same,"viability, T/C",[31],108%
same,"viability, T/C",[32],95.6%
same,"viability, T/C",[33],108%
same,"viability, T/C",[34],85.5%
same,"viability, T/C",[35],67.8%
same,"viability, T/C",[36],59%
